Inconclusive results are not listed. Where a SMILES comes first, the peptide text is derived from it. Bridges are numbered along the chain shown (N, C = ends). Roman numbers before positions name the chains, in order. [ ]: non-standard residue; d: D form. The star is where a group is joined. Quinoxaline2carbonyl = O=C(c1cnc2ccccc2n1)*; NMeV = CN[CH](C(=O)O)C(C)C; NMeC = CN[CH](CS)C(=O)O
System: BDF1 mice, B16 melanoma s.c., survival/tumor T/C
Assay: NCI In Vivo Anticancer Drug Screen. Data for tumor model B16 Melanoma (subcutaneous) in B6D2F1 (BDF1) mice
Procedure: The antitumor activity of compounds was measured in mice bearing transplantable tumors. Survival or tumor size were measured and the results are expressed as the measurement made in the treated group (T) divided by the measurement made in the vehicle treated control group (C). The tumor model used in this assay is B16 Melanoma (subcutaneous) in B6D2F1 (BDF1) mice

O=NN(CCF)C(=O)NC1CCCCC1
T/C (endpoint: median survival time, dose: 0.63 mg/kg/injection, schedule: Q01HX012 (ip), vehicle: Klucel (hydroxypropylcellulose) (HPC), higher = longer survival): 123 % of control
T/C (endpoint: median survival time, dose: 1.25 mg/kg/injection, schedule: Q01HX012 (ip), vehicle: Klucel (hydroxypropylcellulose) (HPC), higher = longer survival): 107 % of control
T/C (endpoint: median survival time, dose: 1.25 mg/kg/injection, schedule: Q02HX006 (ip), vehicle: Klucel (hydroxypropylcellulose) (HPC), higher = longer survival): 96 % of control
T/C (endpoint: median survival time, dose: 1.88 mg/kg/injection, schedule: Q03HX004 (ip), vehicle: Klucel (hydroxypropylcellulose) (HPC), higher = longer survival): 96 % of control
T/C (endpoint: median survival time, dose: 2.5 mg/kg/injection, schedule: Q02HX006 (ip), vehicle: Klucel (hydroxypropylcellulose) (HPC), higher = longer survival): 101 % of control
T/C (endpoint: median survival time, dose: 3.11 mg/kg/injection, schedule: Q01DX007 (ip), vehicle: Klucel (hydroxypropylcellulose) (HPC), higher = longer survival): 98 % of control
T/C (endpoint: median survival time, dose: 5.0 mg/kg/injection, schedule: Q01HX012 (ip), vehicle: Klucel (hydroxypropylcellulose) (HPC), higher = longer survival): 242 % of control
T/C (endpoint: median survival time, dose: 5.0 mg/kg/injection, schedule: Q02HX006 (ip), vehicle: Klucel (hydroxypropylcellulose) (HPC), higher = longer survival): 115 % of control
T/C (endpoint: median survival time, dose: 5.18 mg/kg/injection, schedule: Q01DX007 (ip), vehicle: Klucel (hydroxypropylcellulose) (HPC), higher = longer survival): 102 % of control
T/C (endpoint: median survival time, dose: 7.5 mg/kg/injection, schedule: Q01DX001 (ip), vehicle: Klucel (hydroxypropylcellulose) (HPC), higher = longer survival): 107 % of control
T/C (endpoint: median survival time, dose: 7.5 mg/kg/injection, schedule: Q03HX004 (ip), vehicle: Klucel (hydroxypropylcellulose) (HPC), higher = longer survival): 115 % of control
T/C (endpoint: median survival time, dose: 10.0 mg/kg/injection, schedule: Q02HX006 (ip), vehicle: Klucel (hydroxypropylcellulose) (HPC), higher = longer survival): 261 % of control
T/C (endpoint: median survival time, dose: 14.4 mg/kg/injection, schedule: Q01DX007 (ip), vehicle: Klucel (hydroxypropylcellulose) (HPC), higher = longer survival): 120 % of control
T/C (endpoint: median survival time, dose: 15.0 mg/kg/injection, schedule: Q01DX001 (ip), vehicle: Klucel (hydroxypropylcellulose) (HPC), higher = longer survival): 119 % of control
T/C (endpoint: median survival time, dose: 15.0 mg/kg/injection, schedule: Q03HX004 (ip), vehicle: Klucel (hydroxypropylcellulose) (HPC), higher = longer survival): 157 % of control
T/C (endpoint: median survival time, dose: 15.8 mg/kg/injection, schedule: Q01DX007 (ip), vehicle: Klucel (hydroxypropylcellulose) (HPC), higher = longer survival): 115 % of control
T/C (endpoint: median survival time, dose: 20.0 mg/kg/injection, schedule: Q02HX006 (ip), vehicle: Klucel (hydroxypropylcellulose) (HPC), higher = longer survival): 88 % of control
T/C (endpoint: median survival time, dose: 23.7 mg/kg/injection, schedule: Q01DX007 (ip), vehicle: Klucel (hydroxypropylcellulose) (HPC), higher = longer survival): 68 % of control
T/C (endpoint: median survival time, dose: 30.0 mg/kg/injection, schedule: Q01DX001 (ip), vehicle: Klucel (hydroxypropylcellulose) (HPC), higher = longer survival): 164 % of control
T/C (endpoint: median survival time, dose: 30.0 mg/kg/injection, schedule: Q03HX004 (ip), vehicle: Klucel (hydroxypropylcellulose) (HPC), higher = longer survival): 326 % of control
T/C (endpoint: median survival time, dose: 35.6 mg/kg/injection, schedule: Q01DX007 (ip), vehicle: Klucel (hydroxypropylcellulose) (HPC), higher = longer survival): 69 % of control
T/C (endpoint: median survival time, dose: 53.3 mg/kg/injection, schedule: Q01DX007 (ip), vehicle: Klucel (hydroxypropylcellulose) (HPC), higher = longer survival): 60 % of control
T/C (endpoint: median survival time, dose: 60.0 mg/kg/injection, schedule: Q01DX001 (ip), vehicle: Klucel (hydroxypropylcellulose) (HPC), higher = longer survival): 238 % of control
T/C (endpoint: median survival time, dose: 80.0 mg/kg/injection, schedule: Q01DX007 (ip), vehicle: Klucel (hydroxypropylcellulose) (HPC), higher = longer survival): 55 % of control
T/C (endpoint: median tumor weight (est.), dose: 1.25 mg/kg/injection, schedule: Q01HX012 (ip), vehicle: Klucel (hydroxypropylcellulose) (HPC), higher = larger tumour): 59 % of control
T/C (endpoint: median tumor weight (est.), dose: 1.25 mg/kg/injection, schedule: Q02HX006 (ip), vehicle: Klucel (hydroxypropylcellulose) (HPC), higher = larger tumour): 114 % of control
T/C (endpoint: median tumor weight (est.), dose: 1.88 mg/kg/injection, schedule: Q03HX004 (ip), vehicle: Klucel (hydroxypropylcellulose) (HPC), higher = larger tumour): 61 % of control
T/C (endpoint: median tumor weight (est.), dose: 2.5 mg/kg/injection, schedule: Q01HX012 (ip), vehicle: Klucel (hydroxypropylcellulose) (HPC), higher = larger tumour): 10 % of control
T/C (endpoint: median tumor weight (est.), dose: 2.5 mg/kg/injection, schedule: Q02HX006 (ip), vehicle: Klucel (hydroxypropylcellulose) (HPC), higher = larger tumour): 67 % of control
T/C (endpoint: median tumor weight (est.), dose: 3.75 mg/kg/injection, schedule: Q03HX004 (ip), vehicle: Klucel (hydroxypropylcellulose) (HPC), higher = larger tumour): 83 % of control
T/C (endpoint: median tumor weight (est.), dose: 5.0 mg/kg/injection, schedule: Q02HX006 (ip), vehicle: Klucel (hydroxypropylcellulose) (HPC), higher = larger tumour): 26 % of control
T/C (endpoint: median tumor weight (est.), dose: 7.5 mg/kg/injection, schedule: Q01DX001 (ip), vehicle: Klucel (hydroxypropylcellulose) (HPC), higher = larger tumour): 110 % of control
T/C (endpoint: median tumor weight (est.), dose: 7.5 mg/kg/injection, schedule: Q03HX004 (ip), vehicle: Klucel (hydroxypropylcellulose) (HPC), higher = larger tumour): 70 % of control
T/C (endpoint: median tumor weight (est.), dose: 15.0 mg/kg/injection, schedule: Q01DX001 (ip), vehicle: Klucel (hydroxypropylcellulose) (HPC), higher = larger tumour): 70 % of control

Cc1c2ccncc2c(C)c2c1[nH]c1ccccc12
T/C (endpoint: median survival time, dose: 25.0 mg/kg/injection, schedule: Q04DX003 (ip), vehicle: Klucel (hydroxypropylcellulose) (HPC), higher = longer survival): 105 % of control
T/C (endpoint: median survival time, dose: 50.0 mg/kg/injection, schedule: Q04DX003 (ip), vehicle: Klucel (hydroxypropylcellulose) (HPC), higher = longer survival): 98 % of control
T/C (endpoint: median survival time, dose: 82.0 mg/kg/injection, schedule: Q04DX003 (ip), vehicle: saline with Tween-80, higher = longer survival): 122 % of control
T/C (endpoint: median survival time, dose: 400.0 mg/kg/injection, schedule: Q01DX001 (ip), vehicle: saline with Tween-80, higher = longer survival): 112 % of control
T/C (endpoint: median survival time, dose: 900.0 mg/kg/injection, schedule: Q01DX001 (ip), vehicle: saline with Tween-80, higher = longer survival): 114 % of control

NNC(=O)c1ccncc1
T/C (endpoint: median survival time, dose: 64.0 mg/kg/injection, schedule: Q01DX009 (ip), vehicle: saline, higher = longer survival): 116 % of control
T/C (endpoint: median survival time, dose: 128.0 mg/kg/injection, schedule: Q01DX009 (ip), vehicle: saline, higher = longer survival): 88 % of control

CC[CH2][Sn]([CH2]CC)([CH2]CC)[O][Sn]([CH2]CC)([CH2]CC)[CH2]CC
T/C (endpoint: median survival time, dose: 0.5 mg/kg/injection, schedule: Q01DX009 (ip), vehicle: saline, higher = longer survival): 123 % of control
T/C (endpoint: median survival time, dose: 1.0 mg/kg/injection, schedule: Q01DX009 (ip), vehicle: saline, higher = longer survival): 114 % of control
T/C (endpoint: median survival time, dose: 2.0 mg/kg/injection, schedule: Q01DX009 (ip), vehicle: saline, higher = longer survival): 100 % of control

CC1NC(=O)C(NC(=O)c2cnc3ccccc3n2)COC(=O)C(C(C)C)N(C)C(=O)C2CSSCC(C(=O)N(C)C(C(C)C)C(=O)OCC(NC(=O)c3cnc4ccccc4n3)C(=O)NC(C)C(=O)N2C)N(C)C1=O (centres undefined) (I: Quinoxaline2carbonyl-SA[NMeC][NMeV] / II: Quinoxaline2carbonyl-SA[NMeC][NMeV]; ester I:1-II:C, I:C-II:1; disulfide I:3-II:3; configuration not given here)
T/C (endpoint: median survival time, dose: 11.2 micrograms/kg/injection, schedule: Q01DX009 (ip), vehicle: Klucel (hydroxypropylcellulose) (HPC), higher = longer survival): 91 % of control
T/C (endpoint: median survival time, dose: 22.5 micrograms/kg/injection, schedule: Q01DX009 (ip), vehicle: Klucel (hydroxypropylcellulose) (HPC), higher = longer survival): 107 % of control
T/C (endpoint: median survival time, dose: 45.0 micrograms/kg/injection, schedule: Q01DX009 (ip), vehicle: Klucel (hydroxypropylcellulose) (HPC), higher = longer survival): 109 % of control
T/C (endpoint: median survival time, dose: 90.0 micrograms/kg/injection, schedule: Q01DX009 (ip), vehicle: Klucel (hydroxypropylcellulose) (HPC), higher = longer survival): 104 % of control

CN(Cc1cnc2nc(N)nc(N)c2n1)c1c(Cl)cc(C(=O)NC(CCC(=O)O)C(=O)O)cc1Cl (centres undefined)
T/C (endpoint: median survival time, dose: 60.0 mg/kg/injection, schedule: Q01DX009 (ip), vehicle: sodium bicarbonate, higher = longer survival): 103 % of control
T/C (endpoint: median survival time, dose: 90.0 mg/kg/injection, schedule: Q01DX009 (ip), vehicle: sodium bicarbonate, higher = longer survival): 110 % of control
T/C (endpoint: median survival time, dose: 135.0 mg/kg/injection, schedule: Q01DX009 (ip), vehicle: sodium bicarbonate, higher = longer survival): 101 % of control
T/C (endpoint: median survival time, dose: 600.0 mg/kg/injection, schedule: Q04DX003 (ip), vehicle: sodium bicarbonate, higher = longer survival): 109 % of control
T/C (endpoint: median survival time, dose: 670.0 mg/kg/injection, schedule: Q01DX001 (ip), vehicle: sodium bicarbonate, higher = longer survival): 97 % of control
T/C (endpoint: median survival time, dose: 900.0 mg/kg/injection, schedule: Q04DX003 (ip), vehicle: sodium bicarbonate, higher = longer survival): 102 % of control
T/C (endpoint: median survival time, dose: 1000.0 mg/kg/injection, schedule: Q01DX001 (ip), vehicle: sodium bicarbonate, higher = longer survival): 102 % of control

CCCCC[C@H](O)/C=C/[C@H]1[C@H](O)CC(=O)[C@@H]1C/C=C\CCCC(=O)O
T/C (endpoint: median survival time, dose: 0.75 mg/kg/injection, schedule: Q04DX002 (ip), vehicle: Klucel (hydroxypropylcellulose) (HPC), higher = longer survival): 98 % of control
T/C (endpoint: median survival time, dose: 3.0 mg/kg/injection, schedule: Q04DX002 (ip), vehicle: Klucel (hydroxypropylcellulose) (HPC), higher = longer survival): 118 % of control
T/C (endpoint: median survival time, dose: 6.0 mg/kg/injection, schedule: Q04DX002 (ip), vehicle: Klucel (hydroxypropylcellulose) (HPC), higher = longer survival): 122 % of control
T/C (endpoint: median survival time, dose: 12.5 mg/kg/injection, schedule: Q04DX002 (ip), vehicle: saline with Tween-80, higher = longer survival): 87 % of control

Nc1nc(=S)c2ncn(C3CC(O)C(CO)O3)c2[nH]1 (centres undefined)
T/C (endpoint: median survival time, dose: 4.0 mg/kg/injection, schedule: Q01DX009 (ip), vehicle: saline with Tween-80, higher = longer survival): 109 % of control
T/C (endpoint: median survival time, dose: 8.0 mg/kg/injection, schedule: Q01DX009 (ip), vehicle: saline with Tween-80, higher = longer survival): 91 % of control
T/C (endpoint: median survival time, dose: 16.0 mg/kg/injection, schedule: Q01DX009 (ip), vehicle: saline with Tween-80, higher = longer survival): 95 % of control
T/C (endpoint: median survival time, dose: 32.0 mg/kg/injection, schedule: Q01DX009 (ip), vehicle: saline with Tween-80, higher = longer survival): 91 % of control
T/C (endpoint: median survival time, dose: 64.0 mg/kg/injection, schedule: Q01DX009 (ip), vehicle: saline with Tween-80, higher = longer survival): 123 % of control

Source: PubChem BioAssay AID194 (DTP/NCI, 2004)
